ChEMBL document CHEMBL5120753, “Isolation and biological activity of azocine and azocane alkaloids” (Bioorg Med Chem, 2022)
pIC50, pKi: −log10 of the molar value. In brackets after ≈: the same amount, converted by molar mass.

Columns and labels:
[1] = Displacement of [3H]-naloxone from opiate receptor in rat cortical brain membrane assessed as inhibition constant incubated for 30 mins by liquid scintillation counter analysis; format: cell membranes
[2] = biological target: Prostaglandin G/H synthase 1 (Homo sapiens) (UniProt P23219); experiment: Inhibition of COX-1 (unknown origin) using arachidonic acid as substrate at 100 uM preincubated for 5 mins followed by substrate addition measured after 15 mins by absorbance based analysis relative to control; conditions: time 20.0 min
Sequence of Prostaglandin G/H synthase 1 (Homo sapiens) (P23219 whole entry): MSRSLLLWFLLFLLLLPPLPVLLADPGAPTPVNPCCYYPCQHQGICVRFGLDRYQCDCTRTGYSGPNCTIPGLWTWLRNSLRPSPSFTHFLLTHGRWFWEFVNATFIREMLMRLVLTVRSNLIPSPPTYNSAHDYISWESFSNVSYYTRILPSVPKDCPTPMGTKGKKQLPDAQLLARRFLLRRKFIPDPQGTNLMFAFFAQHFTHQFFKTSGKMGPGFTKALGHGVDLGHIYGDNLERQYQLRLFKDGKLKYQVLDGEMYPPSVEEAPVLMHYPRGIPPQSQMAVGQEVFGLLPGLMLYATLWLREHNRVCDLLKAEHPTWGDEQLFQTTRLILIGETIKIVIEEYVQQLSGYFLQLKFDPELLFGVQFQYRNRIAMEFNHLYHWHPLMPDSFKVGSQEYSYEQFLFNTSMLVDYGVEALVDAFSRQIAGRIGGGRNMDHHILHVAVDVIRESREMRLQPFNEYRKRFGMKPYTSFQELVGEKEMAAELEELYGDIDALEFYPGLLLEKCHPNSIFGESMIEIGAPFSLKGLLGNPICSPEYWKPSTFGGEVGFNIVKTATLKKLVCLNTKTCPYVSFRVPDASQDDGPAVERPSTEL

[3] = biological target: Prostaglandin G/H synthase 2 (Homo sapiens) (UniProt P35354); experiment: Inhibition of COX-2 (unknown origin) using arachidonic acid as substrate at 100 uM preincubated for 5 mins followed by substrate addition measured after 15 mins by absorbance based analysis relative to control; conditions: time 20.0 min
Sequence of Prostaglandin G/H synthase 2 (Homo sapiens) (P35354 whole entry): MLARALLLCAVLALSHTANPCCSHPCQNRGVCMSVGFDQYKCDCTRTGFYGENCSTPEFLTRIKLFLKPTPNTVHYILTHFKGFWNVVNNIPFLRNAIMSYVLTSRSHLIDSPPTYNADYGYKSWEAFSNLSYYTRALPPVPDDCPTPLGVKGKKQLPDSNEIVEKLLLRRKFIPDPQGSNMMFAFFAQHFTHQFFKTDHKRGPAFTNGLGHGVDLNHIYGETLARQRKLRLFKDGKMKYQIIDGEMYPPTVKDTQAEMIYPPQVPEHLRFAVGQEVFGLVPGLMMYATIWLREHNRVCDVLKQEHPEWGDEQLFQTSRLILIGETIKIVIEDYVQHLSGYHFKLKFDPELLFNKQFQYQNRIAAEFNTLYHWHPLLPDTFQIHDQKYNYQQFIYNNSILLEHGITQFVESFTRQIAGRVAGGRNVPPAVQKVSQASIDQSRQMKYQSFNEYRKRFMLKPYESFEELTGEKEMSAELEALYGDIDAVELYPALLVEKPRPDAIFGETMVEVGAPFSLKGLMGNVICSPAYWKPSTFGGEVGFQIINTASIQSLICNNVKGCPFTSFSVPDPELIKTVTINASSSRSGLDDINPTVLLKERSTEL

[4] = biological target: Polyunsaturated fatty acid 5-lipoxygenase (Homo sapiens) (UniProt P09917); experiment: Inhibition of 5-LOX (unknown origin) using arachidonic acid as substrate at 100 uM preincubated for 5 mins followed by substrate addition measured after 15 mins by absorbance based analysis relative to control; conditions: time 20.0 min
Sequence of Polyunsaturated fatty acid 5-lipoxygenase (Homo sapiens) (P09917 whole entry): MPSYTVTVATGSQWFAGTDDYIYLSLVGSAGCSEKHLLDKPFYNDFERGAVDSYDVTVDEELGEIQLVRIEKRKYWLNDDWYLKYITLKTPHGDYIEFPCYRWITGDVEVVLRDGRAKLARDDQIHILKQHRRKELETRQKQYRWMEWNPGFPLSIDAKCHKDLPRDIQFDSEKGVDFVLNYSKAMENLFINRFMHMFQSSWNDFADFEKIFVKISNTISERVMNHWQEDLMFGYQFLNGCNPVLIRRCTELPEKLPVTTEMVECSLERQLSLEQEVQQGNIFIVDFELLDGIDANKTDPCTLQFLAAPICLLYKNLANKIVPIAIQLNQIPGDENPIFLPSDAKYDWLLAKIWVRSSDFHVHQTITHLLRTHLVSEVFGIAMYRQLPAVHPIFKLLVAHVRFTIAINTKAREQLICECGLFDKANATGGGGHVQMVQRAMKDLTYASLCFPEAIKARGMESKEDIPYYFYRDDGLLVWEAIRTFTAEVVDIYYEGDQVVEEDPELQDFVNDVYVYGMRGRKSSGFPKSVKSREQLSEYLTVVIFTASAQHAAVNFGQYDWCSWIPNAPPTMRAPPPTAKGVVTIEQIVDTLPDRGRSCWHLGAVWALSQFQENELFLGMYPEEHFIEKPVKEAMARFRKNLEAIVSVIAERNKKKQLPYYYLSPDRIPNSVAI

Leishmania infantum = experiment: Antileishmanial activity against Leishmania infantum PB75 assessed as cell growth inhibition measured after 72 hrs by MTT assay; format: functional
[5] = tested on: Mycobacterium tuberculosis; experiment: Antimycobacterial activity against Mycobacterium tuberculosis H37Rv ATCC 27294 assessed as inhibition of bacterial growth by microplate alamar blue assay; format: functional
[6] = biological target: Replicase polyprotein 1ab (Severe acute respiratory syndrome coronavirus 2) (UniProt P0DTD1); experiment: Binding affinity to SARS-CoV-2 3C-like protease assessed as change in gibbs free energy
Plasmodium falciparum [7] = experiment: Antiplasmodial activity against chloroquine sensitive Plasmodium falciparum W2 assessed as cell growth inhibition; format: functional, organism-based
Plasmodium falciparum [8] = experiment: Antiplasmodial activity against chloroquine sensitive Plasmodium falciparum D6 assessed as cell growth inhibition; format: functional, organism-based
[9] = Toxicity in iv dosed Swiss-Webster mouse assessed as lethal dose at 7.5 ml/kg, iv administered through tail vein injection by Litchfield-Wilcoxon method; format: organism-based; conditions: in vivo
HepG2 = experiment: Cytotoxicity against human HepG2 cells assessed as cell growth inhibition at 0.9 uM measured after 48 hrs by MTT assay relative to control; format: functional; parameters: scale not given: the % may be the effect or the level left
SMMC-7721 = experiment: Cytotoxicity against human SMMC-7721 cells assessed as cell growth inhibition at 0.9 uM measured after 48 hrs by MTT assay relative to control; format: functional; parameters: scale not given: the % may be the effect or the level left
MCF7 = experiment: Cytotoxicity against human MCF7 cells assessed as cell growth inhibition measured after 48 hrs by MTT assay; format: functional, cell-based; conditions: MCF7, 48 h
[10] = Antioxidant activity assessed as free radical scavenging activity incubated for 30 mins by DPPH assay; format: functional
Proteus mirabilis = experiment: Antibacterial activity against Proteus mirabilis assessed as inhibition of bacterial growth incubated for 18 to 24 hrs; format: functional; conditions: time 18-24 hrs
[11] = tested on: Staphylococcus epidermidis; experiment: Antibacterial activity against Staphylococcus epidermidis assessed as inhibition of bacterial growth incubated for 18 to 24 hrs; format: functional; conditions: time 18-24 hrs
[12] = tested on: Lactiplantibacillus plantarum; experiment: Antibacterial activity against Lactobacillus plantarum assessed as inhibition of bacterial growth incubated for 18 to 24 hrs; format: functional; conditions: time 18-24 hrs
SAOS-2 = experiment: Cytotoxicity against human SAOS-2 cells assessed as cell growth inhibition incubated for 48 hrs by microplate reader based analysis; format: functional; conditions: SAOS-2, 48 h
MG-63 = experiment: Cytotoxicity against human MG-63 cells assessed as cell growth inhibition incubated for 48 hrs by microplate reader based analysis; format: functional; conditions: MG-63, 48 h
U2OS = experiment: Cytotoxicity against human U2OS cells assessed as cell growth inhibition incubated for 48 hrs by microplate reader based analysis; format: functional
[13] = Cytotoxicity against human SOSP-9607 cells assessed as cell growth inhibition incubated for 48 hrs by microplate reader based analysis; format: functional; conditions: SOSP-9607, 48 h
Plasmodium falciparum [14] = experiment: Antiplasmodial activity against Plasmodium falciparum 3D7 infected in human erythrocytes assessed as cell growth inhibition incubated for 72 hrs by parasite lactate dehydrogenase assay; format: functional, organism-based; conditions: 3D7, 72 h
N2a = experiment: Neuroprotective activity against paraquat induced mouse Neuro2a cells assessed as reduction in cell viability at 1 uM pretreated for 1 hr followed by paraquat addition measured after 24 hrs by MTT method relative to control; format: functional; conditions: time 25 hrs
B16 = experiment: Cytotoxicity against mouse B16 cells assessed as cell growth inhibition measured after 72 hrs by MTT assay; format: functional, cell-based; conditions: B16, 72 h
[15] = Cytotoxicity against multidrug resistant human VJ300 cells expressing P-gp assessed as cell growth inhibition measured after 72 hrs by MTT assay; format: functional, cell-based; conditions: VJ-300, 72 h
Staphylococcus aureus [16] = experiment: Antibacterial activity against Staphylococcus aureus assessed as zone of inhibition measured after 16 hrs by disk diffusion assay; format: functional
[17] = Toxicity in Artemia salina assessed as mortality measured after 24 hrs by microscopic analysis; conditions: read-out: Activity
[18] = tested on: Mycobacterium tuberculosis; experiment: Antimycobacterial activity against Mycobacterium tuberculosis H37Rv assessed as inhibition of bacterial growth; format: functional
[19] = Toxicity in iv dosed rat assessed as lethal dose; conditions: in vivo
Staphylococcus aureus [20] = experiment: Antibacterial activity against Staphylococcus aureus assessed as bacterial growth inhibition; format: functional
Plasmodium berghei = experiment: Antiplasmodial activity against Plasmodium berghei infected in ip dosed Swiss albino mouse assessed as growth inhibition at asexual erythrocytic stage; format: functional; parameters: scale not given: the % may be the effect or the level left
[21] = Antagonist activity at alpha-adrenergic receptor in rat aortic strips assessed as receptor mediated adrenolytic activity; conditions: read-out: pA2 (converted)
[22] = Antagonist activity at serotonin receptor in rat aortic strips assessed as receptor mediated anti-serotoninergic activity; conditions: read-out: pA2 (converted)

With `CC[C@H]1[C@@H]2CCN3CC[C@@]4(C(=C2C(=O)OC)Nc2ccccc24)[C@@H]13` [TUBOTAIWINE] as the compound, how does the pKi [1] read?
Its pKi is 5.78.

And the inhibition [2]?
The inhibition was 60.8%.

And the inhibition [3]?
Its inhibition is 90.4%.

What about the inhibition [4] of the same compound?
The inhibition was 69.5%.

What about the GI50 (Leishmania infantum) of the same compound?
Its GI50 is 5.9 µg/mL (≈ 18.2 µM).

And the MIC [5]?
The MIC was 100 µg/mL (≈ 308 µM).

Which results are given for `O=C1NCCc2c[nH]c3ccc4c(c23)[C@H]1[C@@H](c1ccc2c(c1)OCO2)O4`?
deltaG [6]: -9.1 kcal/mol; IC50 (Plasmodium falciparum [7]): 4.41 µg/mL (≈ 12.7 µM); IC50 (Plasmodium falciparum [8]): 3.93 µg/mL (≈ 11.3 µM)

What does the source list for `COc1cc2c(cc1OC)[C@@]13CCN4CC5=CCO[C@H]6CC(=O)N2[C@H]1[C@H]6[C@H]5C[C@H]43` [BRUCINE]?
LD50 [9]: 12 mg/kg; Activity (HepG2): 78.3%; Activity (SMMC-7721): 92.3%; pIC50 (MCF7): 3.55

What does the source list for `COc1cc([C@H]2Oc3ccc4[nH]cc5c4c3[C@H]2C(=O)NCC5)ccc1O`?
IC50 [10]: 3.2 10^-3mg/ml; MIC (Proteus mirabilis): 1 µg/mL (≈ 2.85 µM); MIC [11]: 10 µg/mL (≈ 28.5 µM); MIC [12]: 1 µg/mL (≈ 2.85 µM)

With `COC(=O)C1=C2Nc3c(O)cccc3[C@]23CC[N+]2(C)C[C@H](C(C)=O)[C@H]1C[C@H]32` (stereo partly drawn) as the compound, how does the pIC50 (SAOS-2) read?
Its pIC50 is 5.04.

What about the pIC50 (MG-63) of the same compound?
Its pIC50 is 5.04.

What about the pIC50 (U2OS) of the same compound?
Its pIC50 is 5.04.

What about the pIC50 [13] of the same compound?
Its pIC50 is 5.04.

With `COc1cc([C@H]2Oc3ccc4[nH]cc5c4c3[C@@H]2C(=O)NCC5)ccc1OC(=O)C(C)(C)C` as the compound, how does the pIC50 (Plasmodium falciparum [14]) read?
Its pIC50 is 3.91.

With `CC1(C)/C=C\N2C(=O)[C@]3(O)[C@@H](O)CCN3C(=O)[C@@H]2Cc2c1[nH]c1ccccc21` as the compound, how does the Activity (N2a) read?
The Activity was 30.3%.

For `C=C1C=C[C@@]23CC[C@@]45C(C2)[C@]4(CCN13)c1cc(OC)ccc1N5C(=O)OC`, which IC50 (B16) is on record?
Its IC50 is 2.8 µg/mL (≈ 7.68 µM).

What about the IC50 [15] of the same compound?
The IC50 was 4.6 µg/mL (≈ 12.6 µM).

With `CCC(=O)Oc1ccc([C@H]2Oc3ccc4[nH]cc5c4c3[C@@H]2C(=O)NCC5)cc1OC` as the compound, how does the pIC50 (Plasmodium falciparum [14]) read?
The pIC50 was 4.44.

With `COc1cc([C@H]2Oc3ccc4[nH]cc5c4c3[C@@H]2C(=O)NCC5)ccc1O` as the compound, how does the IC50 (Plasmodium falciparum [7]) read?
Its IC50 is over 10 µg/mL.

And the IC50 (Plasmodium falciparum [8])?
Its IC50 is over 10 µg/mL.

And the “diameter of the inhibition zone (DIZ)” value (Staphylococcus aureus [16])?
The value was 19 mm.

What about the mortality at 24 h [17] of the same compound?
The mortality at 24 h was 90%.

Which MIC50 [18] does the source give for `CO[C@H]1/C=C/O[C@@]2(C)Oc3c(C)c(O)c4c(O)c(c(/C=N/N5CCN(C)CC5)c(O)c4c3C2=O)NC(=O)/C(C)=C\C=C\[C@H](C)[C@H](O)[C@@H](C)[C@@H](O)[C@@H](C)[C@H](OC(C)=O)[C@@H]1C` [RIFAMPIN] here?
Its MIC50 is 0.5 µg/mL (≈ 0.608 µM).

With `O=C1C[C@@H]2OCC=C3CN4CC[C@]56c7ccccc7N1[C@H]5[C@H]2[C@H]3C[C@H]46` [STRYCHNINE] as the compound, how does the LD50 [19] read?
Its LD50 is 0.96 mg/kg.

With `O[C@]12C=C(c3nccc4c3[nH]c3ccccc34)[C@@H]3CCN(CCCC/C=C\CC1)C[C@@]31C[C@@H]3/C=C\CCCCN3[C@H]12` [MANZAMINE A] as the compound, how does the MIC (Staphylococcus aureus [20]) read?
The MIC was 6.3 µg/mL (≈ 11.5 µM).

What about the Activity (Plasmodium berghei) of the same compound?
Its Activity is 90%.

What about the MIC50 [18] of the same compound?
Its MIC50 is 1.5 µg/mL (≈ 2.73 µM).

For `COc1cc2c(cc1OC)-c1ccccc1CCN(C)C2`, which Kb [21] is on record?
Its Kb is 0.107 µM.

And the Kb [22]?
The Kb was 0.102 µM.

For `CC1(C)/C=C\N2C(=O)[C@]3(O)[C@H](O)CCN3C(=O)[C@@H]2Cc2c1[nH]c1ccccc21`, which Activity (N2a) is on record?
The Activity was 36.5%.
